Tests used:
S. pneumoniae DSM20566 [1] = assay: Bactericidal or bacteriostatic activity (subculture on blood agar); format: cell-based, Streptococcus pneumoniae DSM20566; details: 0.1 µM
IAV 5258/09 NA = assay: Hemagglutination (HA)-based NA inhibition assay, IAV 5258/09; format: cell-based, influenza A virus A/Jena/5258/2009 (H1N1); details: human erythrocytes
[2] = molecular target: IAV WSN/33 NA-wt (whole virus) (Influenza A virus, UniProt P03470); assay: biochemical; design: species or system influenza A virus A/WSN/1933 (H1N1); details: for IC50: NA inhibition using FL assay IC50, IAV WSN/33
human erythrocytes [3] = format: cell-based; details: human erythrocytes, 2 h at 4°C
Procedure: (§1) Viral (whole virus) and bacterial NA activity as well as their inhibition were measured by using a fluorescence (FL) assay with the substrate 2′-(4-methylumbelliferyl)-α-D-N-acetylneuraminic acid sodium salt hydrate (MUNANA, 100 μM; Sigma-Aldrich GmbH, Taufkirchen, Germany), and/or a hemagglutination (HA)-based NA inhibition assay (HA assay) with human erythrocytes (Institute of Transfusion Medicine, University Hospital Jena, Jena, Germany), both assays as published recently (Richter et al., [2015]). Recombinant NanA (rNanA) and total precipitated bacterial protein of S. pneumoniae DSM20566 were used in FL and HA assays. Interference of the compounds with the FL signal (self-fluorescence and quenching) was excluded as described previously (Richter et al., [2015]). […] Each compound was tested at least three times in both NA inhibition assays.
Supplementary Table 1. Assay interference phenomena of test compounds in the HA-based […]
sample concentrations [µM] in viral HA-assay bacterial HA-assay […]
hem- prevention of erythrocyte hem- erythrocyte agglutinationa virus-induced lysisc agglutinationd lysise […]
cTest compounds lysed the human erythrocytes (2 h at 4°C). […]

[4] = molecular target: T1, S. pneumoniae DSM20566 NA (NanA) (Streptococcus pneumoniae, UniProt P62575); assay: FL NA inhibition assay, S. pneumoniae DSM20566; format: biochemical; details: MUNANA substrate; for IC50: read-out: NA inhibition using FL assay IC50, S. p. DSM20566
T1 construct: host or cells: either rNanA from E. coli BL21(DE3) or total precipitated protein of S. pneumoniae DSM20566

human erythrocytes [5] = format: cell-based; details: human erythrocytes, 4 h at 37°C and 12 h at 4°C
Procedure: as §1
Supplementary Table 1. […]
eTest compounds lysed the human erythrocytes (4 h at 37°C and 12 h at 4°C).

[6] = system: influenza A virus 8178/09; assay: microbe, parasite or virus in culture; format: cell-based, influenza A virus A/Jena/8178/2009 (H1N1)
[7] = system: S. pneumoniae DSM20566 biofilm; assay: Biofilm inhibition assay; format: cell-based, Streptococcus pneumoniae DSM20566; details: 24 h, maximum 50 μM
in vitro = details: dog
[8] = molecular target: IAV HK/68 NA (whole virus) (Influenza A virus, UniProt Q91MA2); assay: biochemical; design: species or system influenza A virus A/Hong Kong/68 (H3N2); details: for IC50: NA inhibition using FL assay IC50, IAV HK/68
S. pneumoniae DSM20566 [9] = assay: Microtiter broth microdilution assay, planktonic growth; format: cell-based, Streptococcus pneumoniae DSM20566; details: 18 h, maximum 50 μM
influenza A virus WSN/33 = assay: microbe, parasite or virus in culture; format: cell-based, influenza A virus A/WSN/1933 (H1N1)
[10] = molecular target: T2, S. pneumoniae DSM20566 NA (Streptococcus pneumoniae, UniProt P62575); assay: HA-based NA inhibition assay, S. pneumoniae DSM20566; format: cell-based; details: human erythrocytes
T2 construct: host or cells: either rNanA from E. coli BL21(DE3) or total precipitated protein of S. pneumoniae DSM20566

influenza A virus HK/68 = assay: microbe, parasite or virus in culture; format: cell-based, influenza A virus A/Hong Kong/68 (H3N2)

## C[C@@H](O)[C@H]1C(=O)N2C(C(=O)O)=C(SCCN=CN)C[C@H]12 [Imipenem, imipenem, reference compound]
S. pneumoniae DSM20566 [1]
  Activity (bactericidal or bacteriostatic): bactericidal
S. pneumoniae DSM20566 [1]; 18 h, then subculture
  cfu per agar plate: < 150

## O=[N+]([O-])c1ccc(/N=N/c2c(O)c(S(=O)(=O)O)cc3cc(S(=O)(=O)O)ccc23)cc1 [Compound 12]
IAV 5258/09 NA
  NA inhibition using HA assay MIC, IAV 5258/09: Not active
[2]
  NA inhibition using FL assay IC50, IAV WSN/33: Not active
Human erythrocytes [3]
  sample concentrations provoking erythrocyte lysis, viral HA-assay: no
[4]
  NA inhibition using FL assay IC50, S. p. DSM20566: Not active
Human erythrocytes [5]
  sample concentrations provoking erythrocyte lysis, bacterial HA-assay: no
[6]
  50% inhibitory concentration, influenza A virus 8178/09: Not active
[7]
  50% inhibitory concentration, S. pneumoniae DSM20566 biofilm formation: Not active
In vitro
  CC50: > 100 µM
[8]
  NA inhibition using FL assay IC50, IAV HK/68: Not active
S. pneumoniae DSM20566 [9]
  50% inhibitory concentration, S. pneumoniae DSM20566 planktonic growth: Not active
Influenza A virus WSN/33
  50% inhibitory concentration, influenza A virus WSN/33: Not active
[10]
  NA inhibition using HA assay MIC, S. p. DSM20566: Not active
Influenza A virus HK/68
  50% inhibitory concentration, influenza A virus HK/68: Not active

## O=S(=O)(O)c1cc(/N=N/c2c(O)ccc3ccccc23)c2c(S(=O)(=O)O)cccc2c1 [Compound 15]
IAV 5258/09 NA
  NA inhibition using HA assay MIC, IAV 5258/09: Not active^c
[2]
  IC50: 28.7 ± 3.3 µM
Human erythrocytes [3]
  sample concentrations provoking erythrocyte lysis, viral HA-assay: no
[4]
  IC50: 46.8 ± 5.27 µM
Human erythrocytes [5]
  sample concentrations provoking erythrocyte lysis, bacterial HA-assay: no
[6]
  50% inhibitory concentration, influenza A virus 8178/09: Not active
[7]
  50% inhibitory concentration, S. pneumoniae DSM20566 biofilm formation: Not active
In vitro
  CC50: > 100 µM
[8]
  NA inhibition using FL assay IC50, IAV HK/68: Not active
S. pneumoniae DSM20566 [9]
  50% inhibitory concentration, S. pneumoniae DSM20566 planktonic growth: Not active
Influenza A virus WSN/33
  50% inhibitory concentration, influenza A virus WSN/33: Not active
[10]
  NA inhibition using HA assay MIC, S. p. DSM20566: Not active^c
Influenza A virus HK/68
  50% inhibitory concentration, influenza A virus HK/68: Not active

## O=[N+]([O-])c1cccc(/N=N/c2c(O)c(S(=O)(=O)O)cc3cc(S(=O)(=O)O)ccc23)c1 [Compound 13]
IAV 5258/09 NA
  NA inhibition using HA assay MIC, IAV 5258/09: Not active
[2]
  NA inhibition using FL assay IC50, IAV WSN/33: Not active
Human erythrocytes [3]
  sample concentrations provoking erythrocyte lysis, viral HA-assay: no
[4]
  NA inhibition using FL assay IC50, S. p. DSM20566: Not active
Human erythrocytes [5]
  sample concentrations provoking erythrocyte lysis, bacterial HA-assay: no
[6]
  50% inhibitory concentration, influenza A virus 8178/09: Not active
[7]
  50% inhibitory concentration, S. pneumoniae DSM20566 biofilm formation: Not active
In vitro
  CC50: > 100 µM
[8]
  NA inhibition using FL assay IC50, IAV HK/68: Not active
S. pneumoniae DSM20566 [9]
  50% inhibitory concentration, S. pneumoniae DSM20566 planktonic growth: Not active
Influenza A virus WSN/33
  50% inhibitory concentration, influenza A virus WSN/33: Not active
[10]
  NA inhibition using HA assay MIC, S. p. DSM20566: Not active
Influenza A virus HK/68
  50% inhibitory concentration, influenza A virus HK/68: Not active

## O=S(=O)(O)c1ccc2c(/N=N/c3c(O)ccc4ccccc34)cccc2c1 [Compound 14]
IAV 5258/09 NA
  NA inhibition using HA assay MIC, IAV 5258/09: Not active^c
[2]
  IC50: 28.9 ± 6.9 µM
Human erythrocytes [3]
  sample concentrations provoking erythrocyte lysis, viral HA-assay: no
[4]
  IC50: 5.74 ± 1.41 µM
Human erythrocytes [5]
  sample concentrations provoking erythrocyte lysis, bacterial HA-assay: no
[6]
  50% inhibitory concentration, influenza A virus 8178/09: Not active
[7]
  50% inhibitory concentration, S. pneumoniae DSM20566 biofilm formation: Not active
In vitro
  CC50: > 100 µM
[8]
  IC50: 83 ± 6.25 µM
S. pneumoniae DSM20566 [9]
  50% inhibitory concentration, S. pneumoniae DSM20566 planktonic growth: Not active
Influenza A virus WSN/33
  50% inhibitory concentration, influenza A virus WSN/33: Not active
[10]
  NA inhibition using HA assay MIC, S. p. DSM20566: Not active^c
Influenza A virus HK/68
  50% inhibitory concentration, influenza A virus HK/68: Not active

## O=S(=O)(O)c1cc2cccc(S(=O)(=O)O)c2c(O)c1/N=N/c1ccccc1 [Compound 17]
IAV 5258/09 NA
  NA inhibition using HA assay MIC, IAV 5258/09: Not active
[2]
  NA inhibition using FL assay IC50, IAV WSN/33: Not active
Human erythrocytes [3]
  sample concentrations provoking erythrocyte lysis, viral HA-assay: no
[4]
  NA inhibition using FL assay IC50, S. p. DSM20566: Not active
Human erythrocytes [5]
  sample concentrations provoking erythrocyte lysis, bacterial HA-assay: no
[6]
  50% inhibitory concentration, influenza A virus 8178/09: Not active
[7]
  50% inhibitory concentration, S. pneumoniae DSM20566 biofilm formation: Not active
In vitro
  CC50: > 100 µM
[8]
  NA inhibition using FL assay IC50, IAV HK/68: Not active
S. pneumoniae DSM20566 [9]
  50% inhibitory concentration, S. pneumoniae DSM20566 planktonic growth: Not active
Influenza A virus WSN/33
  50% inhibitory concentration, influenza A virus WSN/33: Not active
[10]
  NA inhibition using HA assay MIC, S. p. DSM20566: Not active
Influenza A virus HK/68
  50% inhibitory concentration, influenza A virus HK/68: Not active

## COc1cc(/N=N/c2ccc(S(=O)(=O)O)cc2)ccc1/N=N/c1c(O)ccc2cc(S(=O)(=O)O)ccc12 [Compound 8]
IAV 5258/09 NA
  NA inhibition using HA assay MIC, IAV 5258/09: Not active
[2]
  IC50: 6.51 ± 0.72 µM
Human erythrocytes [3]
  sample concentrations provoking erythrocyte lysis, viral HA-assay: no
[4]
  IC50: 3.9 ± 0.51 µM
Human erythrocytes [5]
  sample concentrations provoking erythrocyte lysis, bacterial HA-assay: no
[6]
  50% inhibitory concentration, influenza A virus 8178/09: Not active
[7]
  50% inhibitory concentration, S. pneumoniae DSM20566 biofilm formation: Not active
In vitro
  CC50: > 100 µM
[8]
  NA inhibition using FL assay IC50, IAV HK/68: Not active
S. pneumoniae DSM20566 [9]
  50% inhibitory concentration, S. pneumoniae DSM20566 planktonic growth: Not active
Influenza A virus WSN/33
  50% inhibitory concentration, influenza A virus WSN/33: Not active
[10]
  NA inhibition using HA assay MIC, S. p. DSM20566: Not active
Influenza A virus HK/68
  50% inhibitory concentration, influenza A virus HK/68: Not active

## O=[N+]([O-])c1ccc(/N=N/c2c(O)ccc3cc(S(=O)(=O)O)ccc23)cc1 [Compound 11]
IAV 5258/09 NA
  NA inhibition using HA assay MIC, IAV 5258/09: Not active
[2]
  IC50: 33.1 ± 4.6 µM
Human erythrocytes [3]
  sample concentrations provoking erythrocyte lysis, viral HA-assay: no
[4]
  IC50: 23.2 ± 13.1 µM
Human erythrocytes [5]
  sample concentrations provoking erythrocyte lysis, bacterial HA-assay: no
[6]
  50% inhibitory concentration, influenza A virus 8178/09: Not active
[7]
  50% inhibitory concentration, S. pneumoniae DSM20566 biofilm formation: Not active
In vitro
  CC50: > 100 µM
[8]
  IC50: 77.3 ± 10.6 µM
S. pneumoniae DSM20566 [9]
  50% inhibitory concentration, S. pneumoniae DSM20566 planktonic growth: Not active
Influenza A virus WSN/33
  50% inhibitory concentration, influenza A virus WSN/33: Not active
[10]
  NA inhibition using HA assay MIC, S. p. DSM20566: Not active
Influenza A virus HK/68
  50% inhibitory concentration, influenza A virus HK/68: Not active

Source: publication PMC5309245, “Discovery and Characterization of Diazenylaryl Sulfonic Acids as Inhibitors of Viral and Bacterial Neuraminidases” (Frontiers in Microbiology, 2017)
